Source: patent US20240181081A1, “Compositions and Methods for Treatment of Myotonic Dystrophy Type 1 with CRISPR/SACAS9” (Vertex Pharmaceuticals Incorporated, priority 2021, published 2024)

Legend:
[1] = tested on: CTG repeat expansion in the 3′ UTR of human DMPK gene; assay: DOUBLE-cut screening: CTG repeat excision by loss-of-signal ddPCR in primary DM1 patient myoblasts; type: cell-based; settings: sgRNA pair RNP, mean of upstream and downstream ddPCR assays; for % of CTG repeat excision efficiency by ddPCR (DNA-PKi): 3 μM Compound 6 for 48 hrs; for % of CTG repeat excision efficiency by ddPCR (Vehicle): DMSO 48 hrs
Procedure: (§1) RNPs were assembled with recombinant SaCas9 protein (Aldevron) and chemically modified sgRNAs (Synthego) at a ratio of 1:3 (protein:sgRNA). For SINGLE-cut screening, RNP complexes were assembled with 30 pmol of SaCas9 and 90 pmol of sgRNA in P5 Primary Cell Nucleofector Solution (Lonza). After incubation at room temperature for 20 minutes, 10 μL of RNP complex was mixed with two hundred thousand primary myoblasts resuspended in 10 μL of P5 Nucleofector Solution. For DOUBLE-cut screening, RNP complexes were first assembled for individual sgRNAs with 20 pmol of SaCas9 protein and 60 pmol of sgRNAs in 5 μL of P5 Nucleofector Solution. After incubation at room temperature for 20 minutes, the two RNP complexes (one for upstream sgRNA and one for downstream sgRNA) were mixed at 1:1 ratio and then further mixed with two hundred thousand primary myoblasts resuspended in 10 μL of P5 Nucleofector Solution.
(§2) The Nucleofector 96-well Shuttle System (Lonza) was used to deliver the SaCa9/sgRNA RNPs into primary DM1 patient myoblasts using the nucleofection program CM138. Following nucleofection, myoblasts from each well of nucleofection shuttle were split into six wells of the 96-well cell culture plate (Greiner, 655090) coated with matrigel. The first three wells were treated with DMSO for 48 hrs before changing to fresh myoblast growth medium, and the other three wells were treated with 3 μM of DNA-PKi Compound 6 for 48 hrs before changing to fresh myoblast growth medium. 72 hrs post nucleofection, two wells of DMSO-treated myoblasts and two wells of DNA-PKi-treated myoblasts from each nucleofection were harvested for genomic DNA extraction using the Kingfisher Flex purification system (Thermal Fisher), whereas one well of DMSO-treated myoblasts and one well of DNA-PKi-treated myoblasts were stained for RNA foci by FISH staining.
The primers and probes of ddPCR were designed using the online primer design software Primer3Plus (http://www.bioinformatics.nl/cgi-bin/primer3plus/primer3plus.cgi). The two Target primers/probe sets were used to detect CTG repeat excision, and the Reference primers/probe set was used to amplify a region located in Exon 1 of human DMPK gene and it served as a reference control for the Target sets. The 24 μL of ddPCR reaction consisted of 12 μL of Supermix for Probes (no dUTP) (Bio-Rad Laboratories), 1 μL of Reference primers mix (21.6 μM), 1 μL of Reference probe (6 μM), 1 μL of Target primers mix (21.6 μM), 1 μL of Target probe (6 μM), and 8 μL of sample genomic DNA. Droplets were generated using probe oil with the QX200 Droplet Generator (Bio-Rad Laboratories). Droplets were transferred to a 96-well PCR plate, sealed and cycled in a C1000 deep well Thermocycler (Bio-Rad Laboratories) under the following cycling protocol: 1 cycle at 95° C. for 10 min; 40 cycles of 94° C. for 30 sec, and 58° C. for 1 min; 1 cycle at 98° C. for 10 min (for enzyme inactivation). The cycled plate was then transferred and read in the FAM and HEX channels using the Bio-Rad QX200 Droplet Reader (Bio-Rad Laboratories). ddPCR analysis was performed with the Bio-Rad QuantaSoft Pro Software.
Next, DOUBLE-cut screening was performed to assess the efficiency of paired sgRNAs-induced CTG repeat excision and RNA foci reduction. 90 SaCas9 sgRNA pairs formed by one upstream sgRNA and one downstream sgRNA were assembled with recombinant SaCas9 protein into RNP complex and nucleofected into primary DM1 patient myoblasts. Nucleofected myoblasts were treated with either DMSO (vehicle) or 3 μM of Compound 6 (DNA-PKi) for 48 hrs. 72 hrs post nucleofection, myoblasts were subjected to either genomic DNA isolation or RNA foci staining.
One upstream and one downstream loss-of-signal droplet digital PCR (ddPCR) assays were used to determine the efficiency of CTG repeat excision. ddPCR signals would be abolished upon excision of the CTG repeat expansion in these loss-of-signal ddPCR assays. […]

[2] = tested on: CUG RNA foci in primary DM1 patient myoblasts; assay: DOUBLE-cut screening: FISH staining of RNA foci in primary DM1 patient myoblasts; type: cell-based, human; settings: sgRNA pair RNP, 72 hrs post nucleofection; for % of CUG foci free nuclei (DNA-PKi): 3 μM Compound 6 for 48 hrs; for % of CUG foci free nuclei (Vehicle): DMSO 48 hrs
Procedure: as §1, §2
Primary myoblasts were fixed for 15 min with 4% paraformaldehyde (PFA) and washed five times with 1×PBS for 10 min each at room temperature. Before staining, cells were permeabilized with 0.5% triton X-100 in 1×PBS for 5 min at room temperature, and then washed with 30% formamide and 2× saline-sodium citrate (SSC) mixture for 10 min at room temperature. Cells were then stained with 1 ng/μL of Cy3-PNA(CAG) 5 probe (PNA Bio, F5001) diluted in 30% formamide, 2×SSC, 2 μg/mL BSA, 66 μg/mL yeast tRNA, and 2 mM vanadyl complex for 15 min at 80° C. Following probe staining, cells were then washed in 30% formamide and 2×SSC mixture for 30 min at 42° C., then washed in 30% formamide and 2×SSC mixture for 30 min at 37° C., and then washed in 1×SSC solution for 10 min at room temperature, and finally washed in 1×PBS for 10 min at room temperature. Cells were next stained with anti-MBNL1 antibody (Santa Cruz, 3A4) diluted in 1% bovine serum albumin (BSA) for overnight at 4° C., and washed twice with 1×PBS for 10 min each at room temperature. Cells were then incubated with the secondary antibody goat […] Alexa 647 (Thermo Fisher, A32728) diluted in 1% BSA for 1 hr at room temperature, and washed twice with 1×PBS for 10 min each at room temperature. Next, cells were stained with Hoechst solution (Thermo Fisher, H3569) at 0.1 mg/ml for 5 min, and washed once with 1×PBS for 5 min. PBS was aspirated and fresh 100 μl of fresh PBS was added to each well. High-throughput acquisition of images was completed with the ImageXpress Micro Confocal High-Content Imaging System (Molecular Devices). RNA foci quantifications were accomplished with a customized analysis module of the MetaXpress program (Molecular Devices).
Next, DOUBLE-cut screening was performed to assess the efficiency of paired sgRNAs-induced CTG repeat excision and RNA foci reduction. 90 SaCas9 sgRNA pairs formed by one upstream sgRNA and one downstream sgRNA were assembled with recombinant SaCas9 protein into RNP complex and nucleofected into primary DM1 patient myoblasts. […]

Row | Substance | % of CTG repeat excision efficiency by ddPCR (DNA-PKi) [1] [%] | % of CTG repeat excision efficiency by ddPCR (Vehicle) [1] [%] | % of CUG foci free nuclei (DNA-PKi) [2] [%] | % of CUG foci free nuclei (Vehicle) [2] [%]
1 | SaU4 + SaD18: SaCas9 sgRNA pair, SEQ ID NOs: 4 and 26 (guide 1 CCAGTTCACAACCGCTCCGAGC; guide 2 GGGCCTTTTATTCGCGAGGGTC; listed as DNA, chemistry not fully specified) | 45.55 | 26.25 | 69.76 | 36.81
2 | SaU2 + SaD11: SaCas9 sgRNA pair, SEQ ID NOs: 2 and 19 (guide 1 ACTCAGTCTTCCAACGGGGCCC; guide 2 CAAAACGTGGATTGGGGTTGTT; listed as DNA, chemistry not fully specified) | 52.97 | 26.90 | 73.23 | 48.38
3 | SaU3 + SaD17: SaCas9 sgRNA pair, SEQ ID NOs: 3 and 25 (guide 1 ACTCCGGGGCCCCGTTGGAAGA; guide 2 TTTATTCGCGAGGGTCGGGGGT; listed as DNA, chemistry not fully specified) | 56.80 | 31.18 | 77.22 | 53.10
4 | SaU3 + SaD12: SaCas9 sgRNA pair, SEQ ID NOs: 3 and 20 (guide 1 ACTCCGGGGCCCCGTTGGAAGA; guide 2 TCAGTGCATCCAAAACGTGGAT; listed as DNA, chemistry not fully specified) | 59.96 | 38.05 | 83.21 | 74.46
5 | SaU3 + SaD2: SaCas9 sgRNA pair, SEQ ID NOs: 3 and 10 (guide 1 ACTCCGGGGCCCCGTTGGAAGA; guide 2 TCGGCCAGGCTGAGGCCCTGAC; listed as DNA, chemistry not fully specified) | 54.49 | 50.85 | 82.73 | 77.08
6 | SaU7 + SaD18: SaCas9 sgRNA pair, SEQ ID NOs: 7 and 26 (guide 1 CGCGGCCGGCGAACGGGGCTCG; guide 2 GGGCCTTTTATTCGCGAGGGTC; listed as DNA, chemistry not fully specified) | 48.08 | 19.71 | 73.07 | 23.22
7 | SaU1 + SaD19: SaCas9 sgRNA pair, SEQ ID NOs: 1 and 27 (guide 1 GCCCCGGAGTCGAAGACAGTTC; guide 2 AGGACCCCCACCCCCGACCCTC; listed as DNA, chemistry not fully specified) | 52.62 | 32.74 | 76.49 | 49.44
8 | SaU4 + SaD17: SaCas9 sgRNA pair, SEQ ID NOs: 4 and 25 (guide 1 CCAGTTCACAACCGCTCCGAGC; guide 2 TTTATTCGCGAGGGTCGGGGGT; listed as DNA, chemistry not fully specified) | 55.51 | 35.01 | 79.31 | 60.96
9 | SaU1 + SaD10: SaCas9 sgRNA pair, SEQ ID NOs: 1 and 18 (guide 1 GCCCCGGAGTCGAAGACAGTTC; guide 2 TTGGGGGTCCTGTAGCCTGTCA; listed as DNA, chemistry not fully specified) | 61.44 | 37.72 | 84.12 | 75.91
10 | SaU3 + SaD3: SaCas9 sgRNA pair, SEQ ID NOs: 3 and 11 (guide 1 ACTCCGGGGCCCCGTTGGAAGA; guide 2 CAACGATAGGTGGGGGTGCGTG; listed as DNA, chemistry not fully specified) | 57.46 | 36.25 | 78.72 | 51.28
11 | SaU7 +SaD3: SaCas9 sgRNA pair, SEQ ID NOs: 7 and 11 (guide 1 CGCGGCCGGCGAACGGGGCTCG; guide 2 CAACGATAGGTGGGGGTGCGTG; listed as DNA, chemistry not fully specified) | 61.82 | 41.26 | 80.45 | 39.24
12 | SaU1 + SaD4: SaCas9 sgRNA pair, SEQ ID NOs: 1 and 12 (guide 1 GCCCCGGAGTCGAAGACAGTTC; guide 2 ACTTTGCGAACCAACGATAGGT; listed as DNA, chemistry not fully specified) | 61.00 | 41.92 | 87.86 | 81.45
13 | SaU4 + SaD3: SaCas9 sgRNA pair, SEQ ID NOs: 4 and 11 (guide 1 CCAGTTCACAACCGCTCCGAGC; guide 2 CAACGATAGGTGGGGGTGCGTG; listed as DNA, chemistry not fully specified) | 56.38 | 44.46 | 80.39 | 60.98
